What was measured:
[1] = test system: mouse lymphatic leukemia P-388; assay: Antileukemic activity against Leukemia P-388 in mice; format: in vivo, mouse (SLC-BDF1, male); conditions: intraperitoneal, every 24 hours, 9 doses; for Median survival time: control 10.2 days; for Increase of Life Span: vs control
Description: The antitumor activity and acute toxicity of the acyl derivatives of 2-[3-(2-chloroethyl)-3-nitrosoureido]-2-deoxy-D-glucopyranose according to this invention can be conveniently observed in recognized animal models. 1,000,000 cells of mouse lymphatic leukemia P-388 were intraperitoneally transplanted into each mouse (SLC-BDF1, male, 18 g.congruent.1 g, 5 weeks old). After 24 hours and thereafter at intervals of 24 hours, a predetermined amount of an acyl derivative of 2-[3-(2-chloroethyl)-3-nitro-soureido]-2-deoxy-D-glucopyramose was intraperitoneally administered for a total of 9 doses. The mice were reared under observation.

Acute toxicities in mice = format: in vivo; conditions: mice (male, ddy), intraperitoneal single dose, 7 days survival
Description: Acute toxicities in mice (male, ddy).
*Intraperitoneal administration of a single dose, 7 days survival.

With “2-[3-(2-chloroethyl)-3-nitrosoureido]-2-deoxy-D-glucopyranose monopalmitate” the Median survival time ([1]; 0.125 mg/Kg/dose) was 14.8 days, the “Increase of Life Span” value ([1]; 0.125 mg/Kg/dose) was 45.1% and the Median survival time ([1]; 0.25 mg/Kg/dose) was 15.5 days. The “Increase of Life Span” value ([1]; 0.25 mg/Kg/dose) was 52.0%, the Median survival time ([1]; 0.5 mg/Kg/dose) was 16.3 days and the “Increase of Life Span” value ([1]; 0.5 mg/Kg/dose) was 59.8%. For the same compound, the Median survival time ([1]; 1.0 mg/Kg/dose) was 17.5 days, the “Increase of Life Span” value ([1]; 1.0 mg/Kg/dose) was 71.6% and the LD50 (Acute toxicities in mice) was 162.5 mg/kg.

Work on “2-[3-(2-chloroethyl-3-nitrosoureidol]-2-deoxy-D-glucopyranose tripalmitate” yielded an LD50 (Acute toxicities in mice) of over 800 mg/kg.

In the case of “2-[3-(2-chloroethyl)-3-nitrosoureido]-2-deoxy-D-glucopyranose dipalmitate”, the Median survival time ([1]; 0.125 mg/Kg/dose) was 16.5 days, the “Increase of Life Span” value ([1]; 0.125 mg/Kg/dose) was 61.8% and the Median survival time ([1]; 0.25 mg/Kg/dose) was 17.8 days. For the same compound, the “Increase of Life Span” value ([1]; 0.25 mg/Kg/dose) was 74.5%, the Median survival time ([1]; 0.5 mg/Kg/dose) was 19.3 days and the “Increase of Life Span” value ([1]; 0.5 mg/Kg/dose) was 89.2%. The Median survival time ([1]; 1.0 mg/Kg/dose) was 21.0 days, the “Increase of Life Span” value ([1]; 1.0 mg/Kg/dose) was 105.9% and the LD50 (Acute toxicities in mice) was over 800 mg/kg.

In the case of `O=NN(CCCl)C(=O)N[C@H]1C(O)O[C@H](CO)[C@@H](O)[C@@H]1O` (stereo partly drawn) [Chlorozotocin, 2-[3-(2-Chloroethyl)-3-nitrosoureido]-2-deoxy-D-glucopyranose], the Median survival time ([1]; 0.125 mg/Kg/dose) was 12.3 days, the “Increase of Life Span” value ([1]; 0.125 mg/Kg/dose) was 20.6% and the Median survival time ([1]; 0.25 mg/Kg/dose) was 14.5 days. The “Increase of Life Span” value ([1]; 0.25 mg/Kg/dose) was 42.2%, the Median survival time ([1]; 0.5 mg/Kg/dose) was 16.3 days and the “Increase of Life Span” value ([1]; 0.5 mg/Kg/dose) was 59.8%. The Median survival time ([1]; 1.0 mg/Kg/dose) was 18.8 days, the “Increase of Life Span” value ([1]; 1.0 mg/Kg/dose) was 84.3% and the LD50 at 168 h (Acute toxicities in mice; mouse, in vivo, ip) was 45 to 47 mg/kg.

— patent US4211866A, “Acyl derivatives of 2-[3-(2-chloroethyl)-3-nitrosoureido]-2-deoxy-D-glucopyranose” (Nippon Shinyaku Co., Ltd., priority 1977, dated 1980)
